Results as given in patent publication US5726155A, “Regulation of oxidative burst using LMWG-derived peptides and analogs” (The Scripps Research Institute, priority 1993, dated 1998).
Where no end group is shown, it is not given here.

Tests used:
NADPH oxidase [1] = assay: cell-free NADPH oxidase assay with GAP proteins; format: biochemical, human
Procedure: Subcellular fractions from human neutrophils for use in cell-free NADPH oxidase assays were prepared as described previously (Curnutte, et al., PNAS USA 86: 825-829 (1989)). Cell-free oxidase assays were conducted as described in Heyworth, et al., Mol. Biol. Cell 4: 261-269 (1993) and Curnutte, et al., Id. (1989). In order to deplete endogenous guanine nucleotides for some experiments, cytosol was dialyzed overnight against three 2-liter volumes of 100 mM KCl/3 mM NaCl/3.5 mM MgCl2 /10 mM PIPES, pH 7.3, as previously described (Peveri, et al., PNAS USA 89: 2494-2498 (1992)). Reaction mixtures contained 4×10^5 cell equivalents (cell eq) of human neutrophil membranes and 1.8×10^6cell eq of neutrophil cytosol. Reactions were performed in the absence of GTPγS, unless otherwise indicated (see FIGS. 3, 7, 8, and 9, and accompanying legends), and with the indicated concentrations of p190 GAP. Rates of O2^- production were calculated from maximum rates of absorbance change after initiation of the reaction with 110 μM SDS.

NADPH oxidase [2] = molecular target: T1, NADPH oxidase (Homo sapiens, UniProt P04839+P13498+P14598+P19878); assay: cell-free NADPH oxidase assay (O2- production), inhibition by peptides; format: biochemical; settings: for Inhibitory Activity: Table 3, peptide incubated five minutes before 90 μM SDS or 100 μM arachidonic acid; for Percent Inhibition: cell-free system
T1 construct: 4×10^5 cell equivalents (cell eq) of neutrophil membranes; of neutrophil cytosol, or (2) 100 nM each of baculovirus recombinant p47-phox and p67-phox; from tissue; host or cells: neutrophil membranes and cytosol (human neutrophils, leukapheresis or blood)
T1 sequence (P04839 2-570 limits assumed): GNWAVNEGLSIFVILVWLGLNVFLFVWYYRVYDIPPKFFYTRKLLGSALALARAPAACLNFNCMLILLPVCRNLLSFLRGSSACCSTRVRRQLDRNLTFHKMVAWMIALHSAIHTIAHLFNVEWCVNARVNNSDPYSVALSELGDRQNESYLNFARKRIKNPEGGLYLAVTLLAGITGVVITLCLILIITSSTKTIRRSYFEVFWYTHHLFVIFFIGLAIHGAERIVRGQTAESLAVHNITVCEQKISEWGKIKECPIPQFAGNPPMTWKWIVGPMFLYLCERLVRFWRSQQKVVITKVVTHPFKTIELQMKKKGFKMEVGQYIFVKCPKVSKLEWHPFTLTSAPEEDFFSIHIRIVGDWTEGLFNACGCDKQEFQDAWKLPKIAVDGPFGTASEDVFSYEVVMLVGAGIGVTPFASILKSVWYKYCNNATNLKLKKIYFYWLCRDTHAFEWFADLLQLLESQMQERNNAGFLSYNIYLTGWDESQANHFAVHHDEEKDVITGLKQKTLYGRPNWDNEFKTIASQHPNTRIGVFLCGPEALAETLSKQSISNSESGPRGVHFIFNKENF
T1 sequence (P13498 2-195 limits assumed): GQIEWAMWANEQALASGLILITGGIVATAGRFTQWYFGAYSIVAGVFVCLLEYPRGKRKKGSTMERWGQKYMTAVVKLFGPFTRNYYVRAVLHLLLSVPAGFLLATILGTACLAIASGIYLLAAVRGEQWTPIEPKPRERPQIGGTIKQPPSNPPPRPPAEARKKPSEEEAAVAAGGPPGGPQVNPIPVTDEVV
T1 sequence (P14598 whole entry): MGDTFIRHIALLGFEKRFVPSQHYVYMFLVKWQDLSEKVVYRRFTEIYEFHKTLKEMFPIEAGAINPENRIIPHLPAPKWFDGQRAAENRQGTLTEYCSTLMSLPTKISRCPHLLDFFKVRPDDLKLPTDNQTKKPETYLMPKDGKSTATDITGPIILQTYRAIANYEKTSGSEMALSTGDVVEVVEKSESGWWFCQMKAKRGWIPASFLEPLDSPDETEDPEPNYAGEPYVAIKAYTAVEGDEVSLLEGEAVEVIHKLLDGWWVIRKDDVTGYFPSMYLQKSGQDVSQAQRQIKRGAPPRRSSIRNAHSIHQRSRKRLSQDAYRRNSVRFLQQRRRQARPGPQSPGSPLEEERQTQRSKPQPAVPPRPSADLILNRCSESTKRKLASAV
T1 sequence (P19878 whole entry): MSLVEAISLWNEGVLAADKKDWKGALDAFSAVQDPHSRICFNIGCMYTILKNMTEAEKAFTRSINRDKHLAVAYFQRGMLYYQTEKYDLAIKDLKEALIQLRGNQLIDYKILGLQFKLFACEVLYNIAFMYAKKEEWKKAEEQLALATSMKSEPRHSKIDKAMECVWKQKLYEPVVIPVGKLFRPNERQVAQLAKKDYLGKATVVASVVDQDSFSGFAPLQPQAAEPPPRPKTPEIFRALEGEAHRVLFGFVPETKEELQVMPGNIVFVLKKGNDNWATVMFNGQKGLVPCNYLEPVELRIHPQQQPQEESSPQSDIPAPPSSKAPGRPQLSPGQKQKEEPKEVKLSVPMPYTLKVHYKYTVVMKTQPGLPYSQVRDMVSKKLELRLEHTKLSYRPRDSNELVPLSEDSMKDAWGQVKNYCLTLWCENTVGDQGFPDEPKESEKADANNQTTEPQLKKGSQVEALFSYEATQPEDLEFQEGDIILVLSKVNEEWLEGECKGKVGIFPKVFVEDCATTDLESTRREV
Procedure: Production of O2^- by NADPH oxidase may be monitored in a cell-free system at 25° C. by following the superoxide dismutase (SOD)-inhibitable reduction of cytochrome c at […], as described in Curnutte, et al., PNAS USA 86: 825-829 (1989). The method may be described essentially as follows.
Activation of the dormant respiratory burst oxidase in a cell-free system by SDS in the presence of cytosol (or partially-purified cytosol factor components) was monitored by measuring O2^- production by the activated oxidase. O2^- generation was determined by a continuous assay in which superoxide dismutase-inhibitable cytochrome c reduction was followed with time at 25° C. in a double-beam spectrophotometer at 550 nm by a modification of the method described in Curnutte, et al., J. Biol. Chem. 262: 6450-6452 (1987). Assay mixtures contained (final concentration) 0.15 mM cytochrome c, 6.5 mM MgCl2, 87 mM KCl, 2.6 mM NaCl, 8.7 mM PIPES (pH 7.3), 0.27 mM ATP (Sigma), 0.33 mM EGTA, 0.16 mM NADPH, and 0.04 mM SDS, plus 0.9×10^7 cell eq of cytosol and 1.55×10^6 cell eq of membranes solubilized in deoxycholate (0.94 mM) in 375 μl. The reference cuvette also received 22.5 μg of superoxide dismutase. All components except NADPH were mixed in the cuvette and allowed to stand for 3.5 minutes to allow activation of the oxidase by SDS. Reactions were then started with NADPH and followed at 550 nm on a Uvikon 810 dual-beam recording spectrophotometer (Kontron, Zurich). Data were collected on a strip chart recorder and the maximal velocity of the reaction, which occurred during the first 20 sec, was used to calculate the oxidase activity.
A modification of the above-noted method was used for most of the studies described herein and may be summarized as follows. Reaction mixtures (generally, in 96-well microtiter plates) typically contain 0.1 mM cytochrome c, 6.5 mM MgCl2, 87 mM KCl, 2.6 mM NaCl, 8.7 mM PIPES (pH 7.3), 10 μM GTPγS, 0.16 mM NADPH, and 4×10^5 cell equivalents (cell eq) of neutrophil membranes (about 1.6 μg protein), in a total volume of 150 μl. In addition, reactions contain varying amounts of recombinant LMWG protein, and either (1) 8 μl (7.2×10^5 cell eq.; about 18 μg protein) of neutrophil cytosol, or (2) 100 nM each of baculovirus recombinant p47-phox and p67-phox as specified herein. Control wells (paired with each reaction well) contained 9 μg SOD, to account for non-O2^- -dependent reduction of cytochrome c. Superoxide production is initiated by the addition of SDS to give a final concentration of either 90 μM (with recombinant p47-phox/p67-phox) or 110 μM (with neutrophil cytosol). Maximum rates of absorbance change, calculated from the first derivative of the time course using Softmax software (Molecular Devices, release 2.01, Menlo Park, Calif., were converted to nmol O2^- generated/min/10^7 cell eq of membrane, after subtracting the rate achieved in the presence of SOD from that obtained in its absence, to give the rate of O2^- -dependent cytochrome c reduction, by using an extinction coefficient of 20.5 mM^-1 cm^-1 for reduced minus oxidized cytochrome c, a value determined experimentally for the 550±1-nm filter used in the kinetic microplate reader and the path length of the 250-μl reaction mixture. (See, e.g., Curnutte, et al., PNAS USA 86: 825-829 (1989).
Peptides were tested for oxidase inhibiting activity using the cell-free assay of Curnutte, et al. (PNAS USA 86: 825-829 (1989)). Peptides were added at indicated concentrations and incubated for five minutes at room temperature prior to initiation of O2^- formation using either 90 μM SDS or 100 μM arachidonic acid as an activating stimulus.

Rac2 protein = Rac2 protein (Homo sapiens, UniProt P15153); assay: guanine nucleotide (GDP/GTP) exchange; format: biochemical; settings: FIG. 4
Rap1A = molecular target: T2, Rap1A (Homo sapiens, UniProt P62834); assay: guanine nucleotide (GDP/GTP) exchange; format: biochemical
T2 construct: Recombinant full length Rap1a, H-Ras, and CDC42Hs were purified after expression in a baculovirus/Sf9 insect cell system; made in house; host or cells: baculovirus/Sf9 insect cells
T2 sequence (P62834 1-184): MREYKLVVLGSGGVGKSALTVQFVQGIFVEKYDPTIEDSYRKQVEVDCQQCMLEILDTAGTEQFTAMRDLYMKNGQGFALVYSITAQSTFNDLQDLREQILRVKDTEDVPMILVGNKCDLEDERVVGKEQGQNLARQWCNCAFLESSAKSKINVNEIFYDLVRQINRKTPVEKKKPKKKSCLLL

Compound: c1ccc2c(c1)[I+]c1ccccc1-2 [diphenylene iodonium, reference compound]
- inhibition of O2- formation when added after initiation with SDS (NADPH oxidase [1]; added 1.7 or 5 minutes after SDS, p190 GAP 350 nM, DPI 1 μM, FIG. 9): could be inhibited

Compound: CPPPVKKRKRK [Rac1 aa178-188, CPPPVKKRKRK]
- Inhibitory Activity (NADPH oxidase [2]): Active

Compound: CPQPTRQQKRA [Rac2 aa178-188, CPQPTRQQKRA]
- Inhibitory Activity (NADPH oxidase [2]): Active

Compound: EKKKPKKKS [Rap1A aa172-180, EKKKPKKKS]
- Inhibitory Activity (NADPH oxidase [2]): Active

Compound: EKLKEKKLTPI [Rac1 aa127-137, EKLKEKKLTPI]
- Inhibitory Activity (NADPH oxidase [2]): Inactive

Compound: GEHAQKHEQALQKLA [ECG 163, GEHAQKHEQALQKLA, reference compound]
- Percent Inhibition (NADPH oxidase [2]; 100 μg/ml peptide): 8.0%
- Percent Inhibition (NADPH oxidase [2]; 200 μg/ml peptide): 5.1%
- Inhibitory Activity (NADPH oxidase [2]): Inactive

Compound: GELAQKLEQALQKLA [ECG 125, GELAQKLEQALQKLA, reference compound]
- Percent Inhibition (NADPH oxidase [2]; 100 μg/ml peptide): 23.3%
- Percent Inhibition (NADPH oxidase [2]; 200 μg/ml peptide): 34.0%
- Inhibitory Activity (NADPH oxidase [2]): Inactive

Compound: GLAQKLLEALQKALLA [ICS4, GLAQKLLEALQKALLA]
- Percent Inhibition (NADPH oxidase [2]; 27 μg/ml peptide): 86.8%
- Percent Inhibition (NADPH oxidase [2]; 100 μg/ml peptide): 99.8%
- Inhibitory Activity (NADPH oxidase [2]): Active

Compound: GLTISSLFSRLFGKKQ [ARF 26, GLTISSLFSRLFGKKQ]
- Percent Inhibition (NADPH oxidase [2]; 27 μg/ml peptide): 30.9%
- Percent Inhibition (NADPH oxidase [2]; 100 μg/ml peptide): 100%

Compound: GTPγS-bound form of RhoA: recombinant Sf9 cell RhoA bound to GTPγS
- reversal of p190 GAP inhibition of NADPH oxidase by added GTP-binding protein (NADPH oxidase [1]; 280 nM p190 GAP, Rac1.GTPγS 30 nM, RhoA.GTPγS 100 nM, Rac2 (Q61L) 10 nM, FIG. 8): did not reverse inhibition

Compound: INLKALAALAKKIL-NH2 [Mastoparan]
- inhibition of NADPH oxidase activity, in words (NADPH oxidase [2]; FIG. 1, dose/response conditions): most dramatic
- Inhibitory Activity (NADPH oxidase [2]): Active
- GDP/GTP exchange on Rac (Rac2 protein): stimulate GDP/GTP exchange
- GDP/GTP exchange on Rap1A (Rap1A): stimulate GDP/GTP exchange

Compound: KNVFDEAILAALEPPEPKKSRR [CDC42Hs]
- Inhibitory Activity (NADPH oxidase [2]): Inactive

Compound: LTQRGLKTVFDE [Rac1 aa161-172, LTQRGLKTVFDE]
- Inhibitory Activity (NADPH oxidase [2]): Inactive

Compound: MGCTVSAEDKAAAER [Gi #5, MGCTVSAEDKAAAER, reference compound]
- Inhibitory Activity (NADPH oxidase [2]): Inactive

Compound: PGKARKKSS [Rap1B aa172-180, PGKARKKSS]
- Inhibitory Activity (NADPH oxidase [2]): Active

Compound: SKFEDLNKRKDT [Gi #2, SKFEDLNKRKDT, reference compound]
- Inhibitory Activity (NADPH oxidase [2]): Inactive

Compound: SSLFSRLFGKKQ [ARF 28, SSLFSRLFGKKQ]
- Percent Inhibition (NADPH oxidase [2]; 27 μg/ml peptide): 43.5%
- Percent Inhibition (NADPH oxidase [2]; 100 μg/ml peptide): 87.6%

Compound: TISSLFSRLFGKKQ [ARF 27, TISSLFSRLFGKKQ]
- Percent Inhibition (NADPH oxidase [2]; 27 μg/ml peptide): 55.9%
- Percent Inhibition (NADPH oxidase [2]; 100 μg/ml peptide): 91.3%
